Experimental data taken from patent US20250171399A1, “PYRROLIDINE COMPOUNDS” (Eli Lilly and Company, priority 2022, published 2025).
Counter-ions that a name gives are not always drawn.

Molecular target: T1, human Apo(a) protein (Homo sapiens, UniProt P08519)
T1 sequence (P08519 1053-1693 limits assumed): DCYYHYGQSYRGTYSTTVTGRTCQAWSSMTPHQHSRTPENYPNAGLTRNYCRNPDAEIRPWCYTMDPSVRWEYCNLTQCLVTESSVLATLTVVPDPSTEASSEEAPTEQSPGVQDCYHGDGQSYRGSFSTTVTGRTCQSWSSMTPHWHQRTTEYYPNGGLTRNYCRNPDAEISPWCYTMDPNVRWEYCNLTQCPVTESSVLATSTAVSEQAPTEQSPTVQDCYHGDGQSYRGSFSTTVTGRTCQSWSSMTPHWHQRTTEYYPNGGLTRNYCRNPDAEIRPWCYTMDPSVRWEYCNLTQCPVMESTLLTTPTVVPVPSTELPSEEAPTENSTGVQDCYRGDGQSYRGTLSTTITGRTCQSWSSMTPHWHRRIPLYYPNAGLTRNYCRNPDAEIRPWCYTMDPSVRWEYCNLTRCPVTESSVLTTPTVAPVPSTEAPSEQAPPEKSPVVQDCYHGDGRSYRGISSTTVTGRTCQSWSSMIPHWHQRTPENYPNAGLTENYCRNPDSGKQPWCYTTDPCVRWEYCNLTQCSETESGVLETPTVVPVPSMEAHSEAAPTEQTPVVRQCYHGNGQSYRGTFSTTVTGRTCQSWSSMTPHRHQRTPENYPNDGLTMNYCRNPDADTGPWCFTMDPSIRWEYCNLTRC
Experiment: In vitro Apo(a) binding assay (competitive SPA radioligand binding)
Conditions: competitive binding vs tritium-labeled radioligand 0.52 nM; human Apo(a) containing 17 Kringle repeats; 60 min at RT
Description: The in vitro binding affinity of compounds to the intended target human Apo(a) protein were tested in a competitive binding assay. Human Apo(a) protein containing 17 Kringle repeats was affinity purified from conditioned media of transiently transfected HEK-293F cells. All reagents were prepared in assay buffer containing 50 mM Tris-HCl pH 7.4, 0.1% BSA. The binding assay was conducted by adding to each well of a clear-bottom plate 50 μL each of (1) test compound in dilution series (final concentration 0.32˜10000 nM), (2) Apo(a) protein (6 ng/well), (3) re-suspended Wheat Germ Agglutinin Polyvinyltoluene SPA beads (20 mg/mL), and (4) the radioligand, tritium-labeled (2S)-3-[3-[2-oxo-3-[3-(tritritiomethoxy)phenyl]imidazolidin-1-yl]phenyl]-2-[(3R)-pyrrolidin-3-yl]propanoic acid hydrochloride (prepared essentially as described in WO 2020/247429; final concentration 0.52 nM). Plates were incubated for 60 min at RT and counted on TRILUX LSC. Non-specific binding, defined as binding in the presence of […] cold (i.e. non-radiolabeled) ligand: (2S)-3-[3-[2-oxo-3-[3-(methoxy)phenyl]imidazolidin-1-yl]phenyl]-2-[(3R)-pyrrolidin-3-yl]propanoic acid hydrochloride (prepared essentially as described in WO 2020/247429) was subtracted to determine specific binding. Data were analyzed by fitting to a standard single site binding model and the IC50 for the Example test compound was determined. […]

## COc1cc(F)cc(CNc2cccc(C[C@H](C(=O)O)[C@H]3CCNC3)c2)c1 [Example 6, (2S)-3-[3-[[(3-Fluoro-5-methoxy-phenyl)methyl]amino]phenyl]-2-[(3R)-pyrrolidin-3-yl]propanoic acid;hydrochloride]
  IC50: 4.68 nM
